Results on seven substances are retold here after article PMC3177827 (PLoS ONE, 2011).

Data set [1] can be described thus: mixed human dental plaque bacteria. As to conditions: cited from earlier work.
Data set [2] can be described thus: bacterial suspension in saliva ion buffer (OD620 1.2). As to conditions: up to 24 h.
Data set [3] in a line: Whole plaque (Mixture of bacteria) suspension in saliva ion buffer. As to conditions: human, up to 24 h.
Data set [4] can be described thus: WSA-8 (Rothia aeria HOT-188) bacterial suspension in saliva ion buffer. The note with it: up to 24 h.
The nature of data set [5]: WSA-26 (Rothia mucilaginosa HOT-681) bacterial suspension in saliva ion buffer. As to conditions: up to 24 h.
Data set [6] can be described thus: WSA-2B (Rothia mucilaginosa HOT-681) bacterial suspension in saliva ion buffer. The note with it: up to 24 h.
Data set [7] is described as follows: WSA-7A (Streptococcus mitis HOT-677) bacterial suspension in saliva ion buffer. The note with it: up to 24 h.
Data set [8] can be described thus: WSAN-25 (Veilonella atypica HOT-524) bacterial suspension in saliva ion buffer. The note with it: up to 24 h.
Data set [9] can be described thus: PAN-5 (Bifidobacterium dentium HOT-588) bacterial suspension in saliva ion buffer. As to conditions: up to 24 h.
A short description of data set [10]: PAN-8 (Bifidobacterium dentium HOT-588) bacterial suspension in saliva ion buffer. The note with it: up to 24 h.
A short description of data set [11]: PAN-0 (Streptococcus pneumoniae HOT-734) bacterial suspension in saliva ion buffer. As to conditions: up to 24 h.
Data set [12] is described as follows: PAN-18 (Bifidobacterium dentium HOT-588) bacterial suspension in saliva ion buffer. The note with it: up to 24 h.
A short description of data set [13]: PAN-19 (Bifidobacterium dentium HOT-588) bacterial suspension in saliva ion buffer. As to conditions: up to 24 h.
Data set [14] is described as follows: PAN-23 (Bifidobacterium dentium HOT-588) bacterial suspension in saliva ion buffer. As to conditions: up to 24 h.
The nature of data set [15]: WSAN-14 (Bifidobacterium longum HOT-B54) bacterial suspension in saliva ion buffer. The note with it: up to 24 h.
A short description of data set [16]: WSAN-16 (Bifidobacterium longum HOT-B54) bacterial suspension in saliva ion buffer. As to conditions: up to 24 h.
Data set [17] can be described thus: WSAN-24 (Bifidobacterium longum HOT-B54) bacterial suspension in saliva ion buffer. As to conditions: up to 24 h.
Data set [18] in a line: WSA-10 (Staphylococcus epidermidis HOT-601) bacterial suspension in saliva ion buffer. As to conditions: up to 24 h.
A short description of another data set: mammalian enzymes. As to conditions: cited from earlier work.
For a further data set, the system named is pepsin. As to the kind of experiment: pepsin (1 µg/ml in 0.1 M HCl, pH 1.0). The note with it: up to 24 h.
Another data set has as its system trypsin. The data set is described as follows: trypsin (1 µg/ml in 50 mM ammonium bicarbonate, pH 8.0). As to conditions: up to 24 h.
Data set [19] in a line: strain WSA-8 (R. aeria) in saliva ion buffer (OD620 1.2, pH 7.0). As to conditions: Rothia aeria, up to 5 h.
The next data set deals with chymotrypsin. The data set is described as follows: chymotrypsin (1 µg/ml in 50 mM ammonium bicarbonate, pH 8.0). The note with it: up to 24 h.
Where [20] appears, read: Bifidobacterium dentium HOT-588 (strain PAN-5).
Setting [21] is: Bifidobacterium dentium HOT-588 (strain PAN-8).
[22] abbreviates: Bifidobacterium dentium HOT-588 (strain PAN-18).
The mark [23] stands for this setting: Bifidobacterium dentium HOT-588 (strain PAN-19).
Where [24] appears, read: Bifidobacterium dentium HOT-588 (strain PAN-23).
Setting [25] is: Bifidobacterium longum HOT-B54 (strain WSAN-14).
Where [26] appears, read: Bifidobacterium longum HOT-B54 (strain WSAN-16).
Where [27] appears, read: Bifidobacterium longum HOT-B54 (strain WSAN-24).
Where [28] appears, read: Rothia aeria HOT-188 (strain WSA-8).
Setting [29] is: Rothia mucilaginosa HOT-681 (strain WSA-2B).
Setting [30] is: Rothia mucilaginosa HOT-681 (strain WSA-26).
Setting [31] is: Staphylococcus epidermidis HOT-601 (strain WSA-10).
The mark [32] stands for this setting: Streptococcus mitis HOT-677 (strain WSA-7A).
Where [33] appears, read: Streptococcus pneumoniae HOT-734 (strain PAN-0).
Where [34] appears, read: Veilonella atypica HOT-524 (strain WSAN-25).

Entries after “also recorded” stand apart in the source; their conditions may differ. The star is where a group is joined. pNA = O=[N+]([O-])c1ccc(N*)cc1; Cbz = O=C(OCc1ccccc1)*

Regarding Cbz-Gln-Gln-Pro-pNA, the cleaved bond result in data set [1] and in data set [3] was “P-pNA” in each case. Besides, the not cleaved entry in [2] (setting [20]), in data set [2] (setting [21]), in data set [2] (setting [22]), in [2] (setting [23]), in data set [2] (setting [24]) and in data set [2] (setting [25]) was “− after 24 h” in each case. Besides, the not cleaved result was “− after 24 h” in data set [2] (setting [26]); “− after 24 h” in [2] (setting [27]); “− (not cleaved) after 24 h” in data set [2] (setting [28]); “− (not cleaved) after 24 h” in data set [2] (setting [29]); “− (not cleaved) after 24 h” in data set [2] (setting [30]); “− after 24 h” in data set [2] (setting [31]). Also, the not cleaved result in data set [2] (setting [32]) is recorded as “− after 24 h”; in data set [2] (setting [33]), “− after 24 h”; in data set [2] (setting [34]), “− after 24 h”; in [4], “− after 24 h incubation”; in data set [5], “− after 24 h incubation”; in data set [6], “− after 24 h incubation”. The not cleaved result in [7], in data set [8], in data set [9], in data set [10], in data set [11] and in data set [12] was “− after 24 h incubation” in each case. Besides, the not cleaved entry in [13], in [14], in [15], in data set [16], in data set [17] and in data set [18] was “− after 24 h incubation” each time.
Take Cbz-Lys-Pro-Gln-pNA: the cleaved bond entry in data set [4] and in data set [6] was “Q-pNA” each time.
For Cbz-Pro-Phe-Pro-pNA, the cleaved bond result in data set [1] and in data set [3] was “P-pNA” in each case. For the same substance, the not cleaved result in data set [2] (setting [20]), in data set [2] (setting [21]), in data set [2] (setting [22]), in data set [2] (setting [23]), in data set [2] (setting [24]) and in [2] (setting [25]) was “− after 24 h” throughout. The not cleaved entry in data set [2] (setting [26]) is on record as “− after 24 h”; in [2] (setting [27]) it was “− after 24 h”; in data set [2] (setting [28]), “− (not cleaved) after 24 h”; in data set [2] (setting [29]), “− (not cleaved) after 24 h”; in data set [2] (setting [30]) it was “− (not cleaved) after 24 h”; in [2] (setting [31]), “− after 24 h”. For the same substance, the not cleaved result was “− after 24 h” in data set [2] (setting [32]); “− after 24 h” in [2] (setting [33]); “− after 24 h” in data set [2] (setting [34]); “− after 24 h incubation” in data set [4]; “− after 24 h incubation” in data set [5]; “− after 24 h incubation” in data set [6]. Also, the not cleaved result in data set [7], in data set [8], in [9], in data set [10], in [11] and in data set [12] was “− after 24 h incubation” throughout. In addition, the not cleaved result in data set [13], in [14], in data set [15], in data set [16], in data set [17] and in data set [18] was “− after 24 h incubation” throughout.
With Cbz-Pro-Pro-Phe-pNA, the cleaved bond result in [1] and in data set [3] was “F-pNA” in each case. Moreover, the not cleaved entry in data set [2] (setting [20]), in data set [2] (setting [21]), in data set [2] (setting [22]), in data set [2] (setting [23]), in [2] (setting [24]) and in data set [2] (setting [25]) was “− after 24 h” each time. The not cleaved result in [2] (setting [26]) is on record as “− after 24 h”; in data set [2] (setting [27]) it was “− after 24 h”; in [2] (setting [28]), “− (not cleaved) after 24 h”; in data set [2] (setting [29]), “− (not cleaved) after 24 h”; in data set [2] (setting [30]), “− (not cleaved) after 24 h”; in data set [2] (setting [31]) it was “− after 24 h”. The not cleaved result in [2] (setting [32]) is “− after 24 h”; in data set [2] (setting [33]), “− after 24 h”; in data set [2] (setting [34]), “− after 24 h”; in data set [4] it was “− after 24 h incubation”; in data set [5], “− after 24 h incubation”; in [6], “− after 24 h incubation”. Besides, the not cleaved result in [7], in [8], in [9], in [10], in [11] and in data set [12] was “− after 24 h incubation” in each case. Further, the not cleaved result in data set [13], in data set [14], in [15], in data set [16], in [17] and in [18] was “− after 24 h incubation” each time.
Consider FLQPQQPFPQQPQQPYPQQPQQPFPQ, for which the not cleaved result is recorded as “resistant to degradation by mammalian enzymes” in “mammalian enzymes”, “resistant to degradation; sampled at t = 24 h” in the data set with pepsin, “resistant to degradation; sampled at t = 24 h” with trypsin and “resistant to degradation; sampled at t = 24 h” in the data set with chymotrypsin. Moreover, the cleaved bond result in data set [19] is reported as “Y-P, major”.
LQLQPFPQPQLPYPQPQLPYPQPQLPYPQPQPF: the not cleaved entry in “mammalian enzymes” is given as “resistant to degradation by mammalian enzymes”; in the data set with pepsin, “resistant to degradation; sampled at t = 24 h”; in the data set with trypsin, “resistant to degradation; sampled at t = 24 h”; with chymotrypsin, “resistant to degradation; sampled at t = 24 h”. In addition, the cleaved bond result in data set [19] is given as “F-P, minor; also recorded: P-Q, minor; also recorded: Q-L, major; also recorded: Y-P, major; also recorded: Q-P, major”.
In the case of benzyloxycarbonyl-YPQ-paranitroanilide, the cleaved bond entry in data set [1], in data set [3], in data set [4], in data set [5], in [6] and in data set [7] was “Q-pNA” in each case.
